Data set [1] can be described thus: In vitro experiments for fup, fu,mic and Rb/p used in the well-stirred model. Format: in vitro ADME. As to the method: (3) CLint,scaled=CLint,app×45mg microsomes/g liver×g liver/kg body weight (4) CLh,blood=Q×fu,p/Rb/p×CLint/fu,mic/Q+CLint·fu,p/Rb·CLint/fu,mic
The next data set has as its target MDR1 (P-gp) (Homo sapiens, UniProt P08183). Kind of data set: in vitro. As to the method:
MDR1 expressing LLC-PK1 cells or MOCK LLC-PK1 cells were utilized to identify whether P-gp is involved in the efflux transport across the membrane barrier. Cells were cultured as described above. Cells were seeded at a density of 2 × 10^4 in Millicell® 24-well cell culture plates with a 6.5 mm insert (0.4 µm polycarbonate membrane) from Corning (Kennebunk, ME, USA) 7 days before the experiments. On the day of the experiment, transepithelial electrical resistance (TEER) was measured to assess monolayer integrity. After washing the cells twice with HBSS, transport experiments in either the apical-to-basolateral direction (A-B) or the basolateral-to-apical direction (B-A) were conducted. […] After incubating the plates at 37 °C for 2 h, samples from the receiving and donor wells (50 μL) were taken simultaneously. All the samples were stored at −40 °C for LC-MS/MS analysis.
In the bidirectional transport study in LLC-PK1 cells, the following equations were used to calculate Papp values and the MDR1 efflux ratio.

Data set [2] can be described thus: Pharmacokinetics of TET in blood after a single i.v. administration in normal and LPS-induced ALI mice. Conditions: male, BALB/c, mouse, in vivo, 5 mg/kg; for AUC(0-inf) / AUC(0-t) / C0 / half-life / clearance / MRT last / Vd: iv, 5 mg/kg i.v., blood; for clearance: read-out: CL (in vivo CLblood) (converted); for MRT last: read-out: MRT(0-t). From the text:
Twelve male BALB/c mice were randomly divided into two groups (n = 6 for each group). […]

Structures are written as SMILES. Where two headings read alike, the source gives them in different places.

MDR1 (P-gp), sequence (P08183 whole entry): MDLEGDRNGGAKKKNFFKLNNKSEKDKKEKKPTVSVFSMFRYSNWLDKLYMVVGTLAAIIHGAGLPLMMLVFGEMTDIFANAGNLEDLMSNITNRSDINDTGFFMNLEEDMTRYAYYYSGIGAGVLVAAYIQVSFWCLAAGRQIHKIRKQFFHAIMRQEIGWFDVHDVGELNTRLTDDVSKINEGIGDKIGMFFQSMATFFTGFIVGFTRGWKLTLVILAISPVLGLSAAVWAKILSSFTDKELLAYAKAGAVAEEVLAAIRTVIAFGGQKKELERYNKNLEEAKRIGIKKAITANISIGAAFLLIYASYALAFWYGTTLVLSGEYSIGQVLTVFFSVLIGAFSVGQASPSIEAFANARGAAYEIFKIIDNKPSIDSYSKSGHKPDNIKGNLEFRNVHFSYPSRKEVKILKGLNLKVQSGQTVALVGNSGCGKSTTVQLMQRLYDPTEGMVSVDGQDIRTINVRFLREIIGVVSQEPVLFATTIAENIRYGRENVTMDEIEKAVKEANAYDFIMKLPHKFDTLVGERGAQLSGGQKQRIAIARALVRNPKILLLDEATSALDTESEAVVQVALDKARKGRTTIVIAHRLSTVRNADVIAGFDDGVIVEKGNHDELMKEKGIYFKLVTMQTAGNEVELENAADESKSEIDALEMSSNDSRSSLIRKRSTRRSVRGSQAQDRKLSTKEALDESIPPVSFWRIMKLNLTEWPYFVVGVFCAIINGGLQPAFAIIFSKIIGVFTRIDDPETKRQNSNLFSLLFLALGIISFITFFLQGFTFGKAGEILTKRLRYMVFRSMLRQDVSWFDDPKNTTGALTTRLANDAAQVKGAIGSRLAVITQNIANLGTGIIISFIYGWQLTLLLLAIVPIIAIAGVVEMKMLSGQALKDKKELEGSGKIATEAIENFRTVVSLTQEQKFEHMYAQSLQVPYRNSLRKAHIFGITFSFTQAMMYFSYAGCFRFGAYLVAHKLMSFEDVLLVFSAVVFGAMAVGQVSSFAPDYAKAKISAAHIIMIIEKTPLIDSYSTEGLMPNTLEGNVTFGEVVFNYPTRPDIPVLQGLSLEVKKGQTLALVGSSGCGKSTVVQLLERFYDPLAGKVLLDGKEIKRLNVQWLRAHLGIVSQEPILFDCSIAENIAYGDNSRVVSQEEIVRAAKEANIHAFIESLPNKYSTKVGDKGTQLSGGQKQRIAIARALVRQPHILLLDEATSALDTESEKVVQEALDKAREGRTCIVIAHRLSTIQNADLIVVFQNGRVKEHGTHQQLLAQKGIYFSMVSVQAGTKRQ

In data set [1], `COc1ccc2cc1Oc1ccc(cc1)C[C@H]1c3cc(c(OC)cc3CCN1C)Oc1c(OC)c(OC)cc3c1[C@H](C2)N(C)CC3` [TET, Tetrandrine] gave a Rb/p of 2.39 and a fup of 0.01. The molecule further displayed an unbound share (fraction unbound) in data set [1] (obtained from in vitro experiments) of 0.18. Moreover, at MDR1 (P-gp), the Papp A→B at 2 h came to 0.52 ± 0.19 ×10⁻⁶ cm/s. Further, at MDR1 (P-gp) (human, LLC-PK1), the Papp B→A at 2 h worked out at 14 ± 2.95 ×10⁻⁶ cm/s and the efflux ratio at 2 h turned out to be 32.5. In addition, the “increased Vz, LPS-treated vs normal mice” value in data set [2] is reported as ~ 134%. In data set [2] (LPS-treated mice), this molecule showed an AUC(0-inf) of 65700 ± 17500 ng·h/mL, an exposure AUC(0-t) of 44100 ± 8460 ng·h/mL, a C0 of 2300 ± 935 ng/mL and a half-life of 93.2 ± 26.4 h. Besides, in data set [2] (LPS-treated mice), the clearance is 1.35 mL/min/kg and the MRT last amounted to 137 ± 40.4 h. In addition, in data set [2] (LPS-treated mice, read-out: Vss), the Vd was 10.5 ± 1.77 L/kg. For the same molecule, the Vd in data set [2] (LPS-treated mice, read-out: Vz) came out at 10.3 ± 1.75 L/kg. Besides, in data set [2] (normal mice), the area under the curve AUC(0-inf) is 29500 ± 3790 ng·h/mL, the area under the curve AUC(0-t) is 26300 ± 3420 ng·h/mL, the C0 worked out at 2270 ± 270 ng/mL and the half-life is 30.7 ± 5.21 h. Further, in data set [2] (normal mice), the clearance was 2.87 mL/min/kg and the MRT last was 72.7 ± 6.4 h. Further, the Vd in data set [2] (normal mice, read-out: Vss) came to 7.71 ± 2.01 L/kg. Besides, in data set [2] (normal mice, read-out: Vz), the Vd was 12.5 ± 1.63 L/kg.

For the origin of these results see PMC9655037, “Alternation of Organ-Specific Exposure in LPS-Induced Pneumonia Mice after the Inhalation of Tetrandrine Is Governed by Metabolizing Enzyme Suppression and Lysosomal Trapping” (International Journal of Molecular Sciences, 2022).
